Data published in paper PMC7696433, “Carbohydrate Hydrolase-Inhibitory Activity of Juice-Based Phenolic Extracts in Correlation to Their Anthocyanin/Copigment Profile” (Molecules, 2020).

Tests used:
[1] = system: α-glucosidase from Saccharomyces cerevisiae; test: In vitro α-glucosidase inhibition study (pNPG substrate, absorbance 405 nm); format: biochemical; details: 2 mM of single substance; mean ± SD, n = 3
Protocol: The α-glucosidase inhibition assay used 4-nitrophenyl-α-D-glucopyranoside as substrate. 20 μL aliquots of the sample (in five different concentrations) or negative and positive control solutions were each mixed with 70 μL enzyme solution (1 U/mL) in 0.1 M PBS (pH 6.8). After incubation at 25 °C for 10 min, 100 μL of 4 mM pNPG solution in PBS was added and incubated in a 96-well microplate for 5 min at 25 °C. The absorbance was measured at λ 405 nm using a microplate reader (Biotek, Bad Friedrichshall, Germany). Each sample was measured in triplicate.

[2] = biological target: T1, porcine pancreatic α-amylase (Sus scrofa, UniProt P00690); test: In vitro α-amylase inhibition study (CNPG3 substrate, absorbance 405 nm); format: biochemical; details: 2 mM of single substance; mean ± SD, n = 3
T1 construct: α-amylase from porcine pancreas; purchased Sigma-Aldrich (Taufkirchen, Germany); host or cells: porcine pancreas
T1 sequence (P00690 16-511): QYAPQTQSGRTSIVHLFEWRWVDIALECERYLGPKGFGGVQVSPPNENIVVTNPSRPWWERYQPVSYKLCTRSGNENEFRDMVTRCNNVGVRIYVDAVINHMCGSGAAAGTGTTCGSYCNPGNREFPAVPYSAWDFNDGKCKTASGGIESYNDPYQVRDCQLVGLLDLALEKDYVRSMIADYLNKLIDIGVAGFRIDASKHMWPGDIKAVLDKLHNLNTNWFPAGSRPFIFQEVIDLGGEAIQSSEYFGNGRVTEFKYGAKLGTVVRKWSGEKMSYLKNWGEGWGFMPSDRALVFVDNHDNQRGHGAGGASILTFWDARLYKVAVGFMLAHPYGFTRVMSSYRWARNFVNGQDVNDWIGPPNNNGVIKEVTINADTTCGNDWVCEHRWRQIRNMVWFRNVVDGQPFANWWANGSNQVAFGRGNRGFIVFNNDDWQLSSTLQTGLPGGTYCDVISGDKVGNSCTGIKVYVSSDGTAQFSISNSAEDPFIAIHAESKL
Protocol: The α-amylase inhibition assay was based on a previously described spectrophotometric method. […] Briefly, 20 μL aliquots of the sample (in five different concentrations), the positive control, or the negative control were each mixed with 70 μL of 40 mM phosphate buffered saline (PBS) at pH 6.9 containing 30 U/mL of porcine pancreatic α-amylase and incubated in a 96-well microplate at 37 °C for 10 min. After pre-incubation, 100 μL of substrate solution (40 mM PBS with 4 mM 2-chloro-4-nitrophenyl-α-D-maltotrioside) was added, and the resulting mixtures were incubated at 37 °C for 8 min. Their absorbance was then measured at λ 405 nm using a microplate reader (Biotek, Bad Friedrichshall, Germany). Each sample was measured in triplicate.

O=C1O[C@H]2[C@@H]3OC(=O)c4cc(O)c(O)c(O)c4-c4c(O)c(O)c5oc(=O)c6c(c(O)c(O)c7oc(=O)c4c5c76)-c4c(cc(O)c(O)c4O)C(=O)OC[C@H]3OC(O)[C@@H]2OC(=O)c2cc(O)c(O)c(O)c2-c2c1cc(O)c(O)c2O (mixture of isomers) [punicalagin]
Inhibition (%) of α-glucosidase [1]: 11.5 ± 1.0% | Inhibition (%) of α-amylase [2]: 4.8 ± 2.6%

O=C1OC[C@H]2OC(O)[C@H](O)[C@@H](O)[C@@H]2OC(=O)c2cc(O)c(O)c(O)c2-c2c(O)c(O)c3oc(=O)c4c(c(O)c(O)c5oc(=O)c2c3c54)-c2c1cc(O)c(O)c2O (mixture of isomers) [punicalin]
Inhibition (%) of α-glucosidase [1]: 8.7 ± 0.6% | Inhibition (%) of α-amylase [2]: 3.8 ± 0.2%

O=C(/C=C/c1ccc(O)c(O)c1)O[C@@H]1C[C@](O)(C(=O)O)C[C@@H](O)[C@H]1O [3-caffeoylquinic acid]
Inhibition (%) of α-glucosidase [1]: 3.6 ± 2.2% | Inhibition (%) of α-amylase [2]: 13.8 ± 1.4%

O=C(/C=C/c1ccc(O)c(O)c1)O[C@H]1[C@H](O)C[C@](O)(C(=O)O)C[C@H]1O [4-caffeoylquinic acid]
Inhibition (%) of α-glucosidase [1]: 4.5 ± 3.3% | Inhibition (%) of α-amylase [2]: 16.0 ± 3.1%

Oc1cc(O)c2cc(O)c(-c3ccc(O)c(O)c3)[o+]c2c1 [Cyanidin]
Inhibition (%) of α-glucosidase [1]: 35.5 ± 2.4%

O=C(/C=C/c1ccc(O)c(O)c1)O[C@@H](C(=O)O)[C@@H](O)C(=O)O [caftaric acid]
Inhibition (%) of α-glucosidase [1]: 4.6 ± 2.2% | Inhibition (%) of α-amylase [2]: 11.5 ± 2.5%

O=C(/C=C/c1ccc(O)c(O)c1)O[C@@H]1C[C@](O)(C(=O)O)C[C@@H](O)[C@H]1O [chlorogenic acid]
Inhibition (%) of α-glucosidase [1]: 1.6 ± 3.1% | Inhibition (%) of α-amylase [2]: 20.3 ± 2.3%

OC[C@H]1O[C@@H](Oc2cc3c(O[C@@H]4O[C@H](CO)[C@@H](O)[C@H](O)[C@H]4O)cc(O)cc3[o+]c2-c2ccc(O)c(O)c2)[C@H](O)[C@@H](O)[C@@H]1O [cyanidin 3,5-diglucoside]
Inhibition (%) of α-glucosidase [1]: 4.9 ± 5.2%

Oc1cc(O)c2cc(O[C@@H]3OC[C@H](O)[C@H](O)[C@H]3O)c(-c3ccc(O)c(O)c3)[o+]c2c1 [cyanidin 3-arabinoside]
Inhibition (%) of α-amylase [2]: 18.7 ± 1.2%

OC[C@H]1O[C@@H](Oc2cc3c(O)cc(O)cc3[o+]c2-c2ccc(O)c(O)c2)[C@H](O)[C@@H](O)[C@@H]1O [cyanidin 3-glucoside]
Inhibition (%) of α-glucosidase [1]: 7.8 ± 5.5%

C[C@@H]1O[C@@H](OC[C@H]2O[C@@H](Oc3cc4c(O)cc(O)cc4[o+]c3-c3ccc(O)c(O)c3)[C@H](O)[C@@H](O)[C@@H]2O)[C@H](O)[C@H](O)[C@H]1O [cyanidin 3-rutinoside]
Inhibition (%) of α-amylase [2]: 7.6 ± 1.8%

OC[C@H]1O[C@@H](Oc2cc3c(O)cc(O)cc3[o+]c2-c2cc(O)c(O)c(O)c2)[C@H](O)[C@@H](O)[C@@H]1O [delphinidin glucoside, Delphinidin 3-glucoside]
Inhibition (%) of α-amylase [2]: 12.7 ± 1.9%

O=c1oc2c(O)c(O)cc3c(=O)oc4c(O)c(O)cc1c4c23 [ellagic acid]
Inhibition (%) of α-glucosidase [1]: 6.0 ± 0.8% | Inhibition (%) of α-amylase [2]: 11.0 ± 0.8%

O=c1c(O[C@@H]2O[C@H](CO)[C@@H](O)[C@H](O)[C@H]2O)c(-c2ccc(O)cc2)oc2cc(O)cc(O)c12 [kaempferol 3-glucoside]
Inhibition (%) of α-glucosidase [1]: 13.2 ± 0.7% | Inhibition (%) of α-amylase [2]: 30.3 ± 2.2%

COc1cc(-c2[o+]c3cc(O)cc(O)c3cc2O[C@@H]2O[C@H](CO)[C@@H](O)[C@H](O)[C@H]2O)cc(OC)c1O [malvidin glucoside, Malvidin 3-glucoside]
Inhibition (%) of α-amylase [2]: 9.1 ± 5.6%

COc1cc(-c2[o+]c3cc(O)cc(O)c3cc2O[C@@H]2O[C@H](CO)[C@@H](O)[C@H](O)[C@H]2O)ccc1O [peonidin glucoside, Peonidin 3-glucoside]
Inhibition (%) of α-amylase [2]: 11.3 ± 0.5%

COc1cc(-c2[o+]c3cc(O)cc(O)c3cc2O[C@@H]2O[C@H](CO)[C@@H](O)[C@H](O)[C@H]2O)cc(O)c1O [petunidin glucoside, Petunidin 3-glucoside]
Inhibition (%) of α-amylase [2]: 7.7 ± 2.5%

O=c1c(O[C@@H]2O[C@H](CO)[C@H](O)[C@H](O)[C@H]2O)c(-c2ccc(O)c(O)c2)oc2cc(O)cc(O)c12 [quercetin 3-galactoside]
Inhibition (%) of α-glucosidase [1]: 8.3 ± 1.2% | Inhibition (%) of α-amylase [2]: 28.0 ± 1.0%
